Results on 39 molecules are retold here after patent US6699854B2, “Anti-cancer compounds” (Cyclacel Limited, priority 2000, dated 2004).

Like-named read-outs stand apart in the source and are kept apart here.

Test [1] relates to A549. As to the kind of experiment: 72-h MTT cytotoxicity assay, A549. It counts as cell-based, human. As to the method: Selected compounds from the above examples were subjected to a standard cellular proliferation assay using a range of different human tumour cell lines. Standard 72-h MTT (thiazolyl blue; 3-{4,5-dimethylthiazol-2-yl}-2,5-diphenyltetrazolium bromide) assays were performed (Haselsberger, K.; Peterson, D. C.; Thomas, D. G.; Darling, J. L. Anti Cancer Drugs 1996, 7, 331-8; Loveland, B. E.; Johns, T. G.; Mackay, I. R.; Vaillant, F.; Wang, Z. X.; Hertzog, P. J. Biochemistry International 1992, 27, 501-10). Human tumour cell lines were obtained from the ATCC (American Type Culture Collection, 10801 University Boulevard, Manessas, Va. 20110-2209, USA).

Test [2] deals with T1, CDK2/cyclin E (Homo sapiens, UniProt P24941).
T1 construct: His; made in house; host or cells: Sf9 insect cells (baculovirus)
Briefly: CDK2/cyclin E kinase assay (GST-Rb phosphorylation).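 Further: enzyme source: His-tagged CDK2/cyclin E co-expressed in Sf9 insect cells via baculovirus, then purified by metal-chelate chromatography.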 It counts as biochemical. The note with it: Table 2, further results for CDK2/cyclin E inhibition; read-out: CDK2/cyclin E.

[3] abbreviates: Homo sapiens, Table 4, additional data for cytotoxicity assay using the A549 cell line, read-out: A549.
[4] abbreviates: Table 4, additional data for cytotoxicity assay using the A549 cell line, read-out: A549.

Regarding `Clc1cc(-c2ccnc(Nc3ccccc3Cl)n2)c(Cl)s1` [Compound 2, (2-Chloro-phenyl)-{4-(2,5-dichloro-thiophen-3-yl)-pyrimidin-2-yl}-amine], the IC50 in test [1] (setting [3]) was 41 ± 8 µM.
Same read-out and setting: in the case of `Clc1ccc(Nc2nccc(-c3cc(Cl)sc3Cl)n2)cc1` [Compound 3, (4-Chloro-phenyl)-{4-(2,5-dichloro-thiophen-3-yl)-pyrimidin-2-yl}-amine] it was 5 ± 4 µM; in that of `Clc1cccc(Nc2nccc(-c3cc(Cl)sc3Cl)n2)c1` [Compound 4, (3-Chloro-phenyl)-{4-(2,5-dichloro-thiophen-3-yl)-pyrimidin-2-yl}-amine], 16 ± 11 µM.
On the same count and under the same terms, in the case of `Cc1nc(C)c(-c2ccnc(Nc3cccc(Cl)c3)n2)s1` [Compound 7, (3-Chloro-phenyl)-{4-(2,4-dimethyl-thiazol-5-yl)-pyrimidin-2-yl}-amine] it was 2.8 µM.
As to `O=[N+]([O-])c1cccc(Nc2nccc(-c3cc(Cl)sc3Cl)n2)c1` [Compound 9, {4-(2,5-Dichloro-thiophen-3-yl)-pyrimidin-2-yl}-(3-nitro-phenyl)-amine], the IC50 in test [2] is 4.7 µM.
As to `Cc1cc(-c2ccnc(Nc3ccccc3Cl)n2)c(C)s1` [Compound 15, (2-Chloro-phenyl)-{4-(2,5-dimethyl-thiophen-3-yl)-pyrimidin-2-yl}-amine], the IC50 in test [1] (setting [3]) stood at 6 µM.
Consider `Cc1nc(C)c(-c2ccnc(Nc3ccc(F)cc3F)n2)s1` [Compound 22, (2,4-Difluoro-phenyl)-{4-(2,4-dimethyl-thiazol-5-yl)-pyrimidin-2-yl}-amine], for which the IC50 in test [1] (setting [3]) stood at 20 ± 1 µM; in test [2] it was 0.02 µM.
In the case of `Cc1nc(C)c(-c2ccnc(Nc3cc(F)cc(F)c3)n2)s1` [Compound 23, (3,5-Difluoro-phenyl)-{4-(2,4-dimethyl-thiazol-5-yl)-pyrimidin-2-yl}-amine], the IC50 in test [2] is 1.7 µM.
Consider `Cc1nc(C)c(-c2ccnc(Nc3cc(Cl)cc(Cl)c3)n2)s1` [Compound 24, (3,5-Dichloro-phenyl)-{4-(2,4-dimethyl-thiazol-5-yl)-pyrimidin-2-yl}-amine], for which, in test [1] (setting [3]), the IC50 worked out at 5 µM.
With `Cc1nc(C)c(-c2ccnc(Nc3ccc(Cl)cc3Cl)n2)s1` [Compound 25, (2,4-Dichloro-phenyl)-{4-(2,4-dimethyl-thiazol-5-yl)-pyrimidin-2-yl}-amine], the IC50 in test [1] (setting [3]) was found to be 1.5 µM.
Regarding `Cc1nc(C)c(-c2ccnc(Nc3cccc(C(F)(F)F)c3)n2)s1` [Compound 26, {4-(2,4-Dimethyl-thiazol-5-yl)-pyrimidin-2-yl}-(3-trifluoromethyl-phenyl)-amine], in test [1] (setting [3]), the IC50 is 3.3 µM.
Still for that read-out and setting: for `Cc1nc(C)c(-c2ccnc(Nc3ccccc3C(F)(F)F)n2)s1` [Compound 27, {4-(2,4-Dimethyl-thiazol-5-yl)-pyrimidin-2-yl}-(2-trifluoromethyl-phenyl)-amine] the value was 3.8 µM.
As for `Cc1nc(C)c(-c2ccnc(Nc3cccc(Br)c3)n2)s1` [Compound 30, (3-Bromo-phenyl)-{4-(2,4-dimethyl-thiazol-5-yl)-pyrimidin-2-yl}-amine], the IC50 in test [1] (setting [3]) amounted to 6.4 ± 0.05 µM; in test [2] it was 0.94 ± 0.49 µM.
For the molecule `Cc1nc(C)c(-c2ccnc(Nc3ccccc3I)n2)s1` [Compound 32, {4-(2,4-Dimethyl-thiazol-5-yl)-pyrimidin-2-yl}-(2-iodo-phenyl)-amine], the IC50 in test [1] (setting [3]) is 23 µM.
As for `Cc1nc(C)c(-c2ccnc(Nc3cccc(F)c3)n2)s1` [Compound 35, {4-(2,4-Dimethyl-thiazol-5-yl)-pyrimidin-2-yl}-(3-fluoro-phenyl)-amine], the IC50 in test [1] (setting [3]) stood at 4.2 µM.
As to `Cc1nc(C)c(-c2ccnc(Nc3ccc(F)c(F)c3)n2)s1` [Compound 36, (3,4-Difluoro-phenyl)-{4-(2,4-dimethyl-thiazol-5-yl)-pyrimidin-2-yl}-amine], the IC50 in test [2] was 0.5 ± 0.2 µM.
Regarding `Cc1nc(C)c(-c2ccnc(Nc3cccc(O)c3)n2)s1` [Compound 40, 3-{4-(2,4-Dimethyl-thiazol-5-yl)-pyrimidin-2-ylamino}-phenol], the IC50 in test [1] (setting [3]) amounted to 0.3 µM.
Regarding `Cc1nc(C)c(-c2ccnc(Nc3ccc(O)cc3)n2)s1` [Compound 41, 4-{4-(2,4-Dimethyl-thiazol-5-yl)-pyrimidin-2-ylamino}-phenol], the IC50 in test [1] (setting [3]) worked out at 0.02 µM.
Still for that read-out and setting: for `Cc1nc(C)c(-c2ccnc(NS(=O)(=O)c3cccc([N+](=O)[O-])c3)n2)s1` [Compound 42, N-{4-(2,4-Dimethyl-thiazol-5-yl)-pyrimidin-2-yl}-3-nitro-benzenesulfonamide] the value was 56 µM; for `Cc1nc(C)c(-c2ccnc(Nc3cccc(N)c3)n2)s1` [Compound 47, N-{4-(2,4-Dimethyl-thiazol-5-yl)-pyrimidin-2-yl}-benzene-1,3-diamine], 1.8 ± 1.4 µM.
On to `Cc1nc(C)c(-c2cc(Br)nc(Nc3cccc([N+](=O)[O-])c3)n2)s1` [Compound 54, {4-Bromo-6-(2,4-dimethyl-thiazol-5-yl)-pyrimidin-2-yl}-(3-nitro-phenyl)-amine], for which the IC50 in test [2] was found to be 0.01 µM.
On to `Cc1nc(C)c(-c2cc(-c3ccccc3)nc(Nc3cccc([N+](=O)[O-])c3)n2)s1` [Compound 57, {4-(2,4-Dimethyl-thiazol-7-yl)-6-phenyl-pyrimidin-2-yl}-(3-nitro-phenyl)-amine], for which the IC50 in test [1] (setting [4]) amounted to 5.2 ± 0.4 µM.
For the molecule `Cc1nc(-c2ccccc2)sc1-c1ccnc(Nc2ccc(F)c(F)c2)n1` [Compound 59, (3,4-Difluoro-phenyl)-{4-(4-methyl-2-phenyl-thiazol-5-yl)-pyrimidin-2-yl}-amine], the IC50 in test [1] (setting [3]) was 22 ± 21 µM.
Take `CNc1nc(C)c(-c2ccnc(Nc3ccc(O)cc3)n2)s1` [Compound 63, 4-{4-(4-Methyl-2-methylamino-thiazol-5-yl)-pyrimidin-2-ylamino}-phenol]: the IC50 in test [1] (Homo sapiens, A549, read-out: A549) is 0.8 ± 0.2 µM.
Take `Cc1nc(C)c(-c2cc(-c3ccc(C(F)(F)F)cc3)nc(Nc3ccc(Cl)cc3)n2)s1` [Compound 65, (4-Chloro-phenyl)-{4-(2,4-dimethyl-thiazol-5-yl)-6-(4-trifluoromethyl-phenyl)-pyrimidin-2-yl}-amine]: in test [1] (setting [3]), the IC50 stood at 55 ± 50 µM.
The same measure, in the same setting: for `COc1cc(-c2cc(-c3sc(C)nc3C)nc(Nc3ccc(F)cc3)n2)cc(OC)c1O` [Compound 69, 4-{6-(2,4-Dimethyl-thiazol-5-yl)-2-(4-fluoro-phenylamino)-pyrimidin-4-yl}-2,6-dimethoxy-phenol] the value was 12 ± 5 µM; for `Cc1nc(C)c(-c2cc(-c3ccc(O)cc3)nc(Nc3ccc(F)cc3)n2)s1` [Compound 70, 4-{6-(2,4-Dimethyl-thiazol-5-yl)-2-(4-fluoro-phenylamino)-pyrimidin-4-yl}-phenol], 3 ± 1 µM; for `CNc1nc(C)c(-c2ccnc(Nc3cccc(O)c3)n2)s1` [Compound 85, 3-{4-(4-Methyl-2-methylamino-thiazol-5-yl)-pyrimidin-2-ylamino}-phenol], 0.4 µM.
In the case of `C=CCNc1nc(C)c(-c2ccnc(Nc3cccc([N+](=O)[O-])c3)n2)s1` [Compound 91, {4-(2-Allylamino-4-methyl-thiazol-5-yl)-pyrimidin-2-yl}-(3-nitro-phenyl)-amine], the IC50 in test [1] (setting [4]) stood at 22.1 ± 0.2 µM.
Turning to `CCOC(=O)c1cc(Nc2nccc(-c3sc(C)nc3C)n2)ccc1Cl` [Compound 92, 2-Chloro-5-{4-(2,4-dimethyl-thiazol-5-yl)-pyrimidin-2-ylamino}-benzoic acid ethyl ester], the IC50 in test [1] (setting [3]) was 4.4 ± 3 µM.
The same measure, in the same setting: in the case of `CCOC(=O)c1cccc(Cl)c1Nc1nccc(-c2sc(C)nc2C)n1` [Compound 93, 3-Chloro-2-{4-(2,4-dimethyl-thiazol-5-yl)-pyrimidin-2-ylamino}-benzoic acid ethyl ester] it was 1.1 ± 1 µM; in that of `COc1ccc(Nc2nccc(-c3sc(C)nc3C)n2)c(O)c1` [Compound 95, 2-{4-(2,4-Dimethyl-thiazol-5-yl)-pyrimidin-2-ylamino}-5-methoxy-phenol], 0.05 ± 0.03 µM; in that of `COC(=O)c1cc(Nc2nccc(-c3sc(C)nc3C)n2)ccc1Cl` [Compound 99, 2-Chloro-5-{4-(2,4-dimethyl-thiazol-5-yl)-pyrimidin-2-ylamino}-benzoic acid methyl ester], 3.7 ± 2.7 µM.
Same read-out and setting: for `COC(=O)c1ccc(Nc2nccc(-c3sc(C)nc3C)n2)cc1Cl` [Compound 101, 2-Chloro-4-{4-(2,4-dimethyl-thiazol-5-yl)-pyrimidin-2-ylamino}-benzoic acid methyl ester] the value was 0.9 ± 0.2 µM.
Take `CNc1nc(C)c(-c2ccnc(Nc3cccc(F)c3)n2)s1` [Compound 103, (3-Fluoro-phenyl)-{4-(4-methyl-2-methylamino-thiazol-5-yl)-pyrimidin-2-yl}-amine]: the IC50 in test [2] came to 1.2 µM.
For the molecule `CNc1nc(C)c(-c2ccnc(Nc3ccc(F)c(F)c3)n2)s1` [Compound 104, (3,4-Difluoro-phenyl)-{4-(4-methyl-2-methylamino-thiazol-5-yl)-pyrimidin-2-yl}-amine], the IC50 in test [1] (setting [3]) was 4.9 ± 2.5 µM.
Regarding `CNc1nc(C)c(-c2ccnc(Nc3cccc(Cl)c3)n2)s1` [Compound 108, (3-Chloro-phenyl)-{4-(4-methyl-2-methylamino-thiazol-5-yl)-pyrimidin-2-yl}-amine], the IC50 in test [2] turned out to be 0.8 µM.
Still for that read-out and setting: for `Cc1nc(N)sc1-c1ccnc(Nc2ccc(O)cc2)n1` [Compound 114, 4-{4-(2-Amino-4-methyl-thiazol-5-yl)-pyrimidin-2-ylamino}-phenol] the value was 1.4 µM; for `CCN(CC)CCOCc1cccc(Nc2nccc(-c3sc(C)nc3C)n2)c1` [Compound 118, {3-(2-Diethylamino-ethoxymethyl)-phenyl}-{4-(2,4-dimethyl-thiazol-5-yl)-pyrimidin-2-yl}-amine], 0.7 µM.
